Reference: publication PMC12463120, “Phenylalanine‐Based DNA‐Encoded Chemical Libraries for the Discovery of Potent and Selective Small Organic Ligands Against Markers of Cancer and Immune Cells” (Advanced Science, 2025)
Entries after “also recorded” stand apart in the source; their conditions may differ.

System: NK-92 cells
Experiment: In vitro interferon-gamma release assay on NK-92 cells
Format: cell-based, human
Settings: serial dilution from 7.5 µM, 24 h
Protocol: plate (20 µL/well). Test compounds (300 nM, in 175 µL of FACS buffer) were added to the wells containing the beads. Plates were further incubated in the dark at room temperature for 1 hour and subsequently centrifuged at 2’500 rpm at 4 °C for 3 min. Beads were washed and resuspended in FACS buffer (200 µL). Data were acquired halting the measurement at 10’000 events on a Cytoflex S flow cytometer (Beckman Coulter) and analyzed using the FlowJo software v10 (BD Biosciences).
2.19 In vitro interferon-gamma release assay
Compounds 26 and 30 were tested for their ability to induce interferon-gamma (IFN-γ) release upon incubation with NK-cells. NK-92 cells were initially starved for 4 h in plain RPMI medium. […] After 24 h, cell-free supernatants were collected, and the concentration of IFN-γ was measured using the ELISA MAXTM Set Human IFN-γ kit (BioLegend). […]
The sections were blocked with 20% FCS (Invitrogen) and 3% BSA in PBS (pH 7.4) for 30 min and washed three times with PBS (pH 7.4). […] Images were recorded on a CR-35 Bio scanner and processed with the AIDA image analysis […]
2.21 Quantitative in vivo biodistribution studies […]
Figure S39. […] After 24 hours of incubation, IFN-γ levels in the culture supernatant were measured by ELISA. […]

In the case of `CC(C)Oc1ccc(-c2cccc(C[C@H](NC(=O)c3ccccc3-c3ccc(C(F)(F)F)cc3)C(=O)N[C@@H](CCCCNC(=S)Nc3ccc4c(c3)C(=O)OC43c4ccc(O)cc4Oc4cc(O)ccc43)C(=O)O)c2)c(F)c1` [compound 30], the “IFN-γ release by NK-92 cells” value is reported as “did not induce IFN-γ release; also recorded: not found to induce the release”.
